# Assay results published in the supplement of paper PMC10307832.
# Tests used:
# Experiment in all cases: relative viability (nuclei count vs DMSO), 5 days (fraction); higher = more cells survive
# BAM7 + Palbociclib = compound: CCOC1=CC=CC=C1N=NC2=C(NN(C2=O)C3=NC(=CS3)C4=CC=CC=C4)C [BAM7] + CC(=O)c1c(C)c2cnc(Nc3ccc(N4CCNCC4)cn3)nc2n(C2CCCC2)c1=O [Palbociclib] (partner 0.5 µM)
# In short: (§1)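 Relative viability divides the nuclei count in treated wells by that in vehicle wells. Lung cancer cell lines were seeded in 1536-well plates, dosed by pin tool the next day, and fixed and stained after 5 days in one step with final 0.05% Triton X-100, 1% formaldehyde and 1 ug/ml Hoechst. Dosing was a single drug or a fixed anchor-drug dose plus five library-drug doses (not always all listed) in √10 steps, and values are medians of duplicate plates imaged at 4×.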
# BAM7 + Navitoclax = compound: CCOC1=CC=CC=C1N=NC2=C(NN(C2=O)C3=NC(=CS3)C4=CC=CC=C4)C [BAM7] + CC1(C)CCC(c2ccc(Cl)cc2)=C(CN2CCN(c3ccc(C(=O)NS(=O)(=O)c4ccc(N[C@H](CCN5CCOCC5)CSc5ccccc5)c(S(=O)(=O)C(F)(F)F)c4)cc3)CC2)C1 [Navitoclax] (partner 0.5 µM)
# In short: as §1
# [1] = compound: CCn1c(-c2nonc2N)nc2c(C#CC(C)(C)O)ncc(OC[C@H]3CCCNC3)c21 + C[C@@H](Oc1cc(-c2cnn(C3CCNCC3)c2)cnc1N)c1c(Cl)ccc(F)c1Cl [Crizotinib] (partner 1 µM)
# In short: as §1
# [2] = compound: CCn1c(-c2nonc2N)nc2c(C#CC(C)(C)O)ncc(OC[C@H]3CCCNC3)c21 + C[C@]1(O)C[C@@H](c2nc(-c3ccc4ccc(-c5ccccc5)nc4c3)c3c(N)nccn32)C1 [Linsitinib] (partner 1 µM)
# In short: as §1
Cell Line,relative viability (BAM7 + Palbociclib; first compound 0.5 µM),relative viability (BAM7 + Palbociclib; first compound 5 µM),relative viability (BAM7 + Palbociclib; first compound 15.81 µM),relative viability (BAM7 + Palbociclib; first compound 50 µM),relative viability (BAM7 + Navitoclax; first compound 0.5 µM),relative viability (BAM7 + Navitoclax; first compound 5 µM),relative viability (BAM7 + Navitoclax; first compound 15.81 µM),relative viability (BAM7 + Navitoclax; first compound 50 µM),relative viability ([1]; first compound 0.01 µM),relative viability ([1]; first compound 0.03162 µM),relative viability ([1]; first compound 0.1 µM),relative viability ([1]; first compound 0.3162 µM),relative viability ([1]; first compound 1 µM),relative viability ([2]; first compound 0.01 µM),relative viability ([2]; first compound 0.03162 µM),relative viability ([2]; first compound 0.1 µM),relative viability ([2]; first compound 0.3162 µM),relative viability ([2]; first compound 1 µM)
LU99A,0.425,0.372,0.383,0.414,0.787,0.849,0.72,0.821,0.567,0.556,0.571,0.494,0.491,0.473,0.524,0.551,0.579,0.548
LXF-289,0.63,0.62,0.616,0.616,0.96,1.04,0.93,0.907,0.856,0.815,0.797,0.758,0.828,0.971,0.945,0.96,0.882,0.951
NCI-H23,0.612,0.479,0.466,0.519,0.978,0.846,0.921,0.934,0.477,0.572,0.444,0.48,0.417,0.542,0.722,0.619,0.491,0.611
NCI-H322M,0.527,0.564,0.524,0.509,1.3,1.22,1.18,1.06,0.969,0.981,0.9,0.811,0.914,0.976,0.988,0.942,0.89,0.909
NCI-H441,0.285,0.191,0.205,0.267,0.688,0.772,0.635,0.956,0.676,0.621,0.708,0.586,0.728,0.592,0.556,0.67,0.592,0.657
NCI-H460,0.179,0.148,0.216,0.165,1.36,1.36,1.03,1.08,0.895,1.07,0.814,0.786,0.884,0.747,0.752,0.687,0.774,0.64
NCI-H520,0.262,0.233,0.235,0.26,1.09,1.2,1.11,1.18,0.732,1.02,0.616,0.644,0.452,1.03,1.07,0.849,0.795,0.674
NCI-H647,0.506,0.431,0.509,0.447,1.11,1.16,0.899,1.14,1.04,1.31,1.11,1.07,0.92,1.25,1.36,1.21,1.16,1.01
